≈ marks a conversion by molar mass, not a printed value.
system: HL-60; test: Cytotoxicity against human HL60 cells; format: functional, cell-based; details: not given

SMILES	IC50 [µM]	GI50 [µM]
CC(=O)O[C@H]1CC[C@]2(C)C3=C(CC[C@H]2C1(C)C)[C@]1(C)CC[C@H]([C@@H](CCC=C(C)C)C(=O)O)[C@@]1(C)CC3 [ACETYL TRAMETENOLIC ACID]	25	
C=C(C)[C@@H]1CCC2=C(CC[C@]3(C)[C@@H]([C@@H](CCC=C(C)C)C(=O)O)[C@H](O)C[C@@]23C)[C@@]1(C)CCC(=O)O [PORICOIC ACID G]		0.0393

system: HeLa; test: Cytotoxicity against human HeLa cells; format: functional, cell-based; details: Homo sapiens, HeLa

SMILES	IC50 [µM]
CCOC(=O)C(C)CC(=O)C[C@@H](C)[C@H]1CC(=O)[C@@]2(C)C3=C(C(=O)[C@@H](OC(C)=O)[C@]12C)[C@@]1(C)CCC(=O)C(C)(C)[C@@H]1CC3=O (stereo partly drawn)	11
C/C(=C\CC[C@@H](C)[C@H]1CC[C@@]2(C)C3=C([C@@H](O)C[C@]12C)[C@@]1(C)CCC(=O)C(C)(C)[C@@H]1CC3=O)C(=O)O	11
C/C(=C\CC[C@@H](C)[C@H]1C[C@H](O)[C@@]2(C)C3=CC[C@H]4C(C)(C)C(=O)CC[C@]4(C)C3=CC[C@]12C)C(=O)O	11
C[C@H](CCC(=O)O)[C@H]1CC[C@@]2(C)C3=C(CC[C@]12C)[C@@]1(C)CCC(=O)C(C)(C)[C@@H]1CC3=O	11
C/C(=C\CC[C@@H](C)[C@H]1CC[C@@]2(C)C3=C(CC[C@]12C)[C@@]1(C)CC[C@H](O)C(C)(C)[C@@H]1CC3=O)C(=O)O	> 300
C/C(=C\CC[C@@H](C)[C@H]1CC[C@@]2(C)C3=C([C@H](O)C[C@]12C)[C@@]1(C)CCC(=O)C(C)(C)[C@@H]1CC3=O)C(=O)O	101
COC(=O)C(C)CC(=O)C[C@@H](C)[C@H]1CC(=O)[C@@]2(C)C3=C(C(=O)[C@@H](OC(C)=O)[C@]12C)[C@@]1(C)CC[C@H](O)C(C)(C)[C@@H]1C[C@@H]3O (stereo partly drawn)	101
CC(=O)O[C@@H]1C(=O)C2=C([C@@H](O)C[C@H]3C(C)(C)[C@@H](O)CC[C@]23C)[C@]2(C)C(=O)C[C@H](/C(C)=C\C(=O)CC(C)C(=O)O)[C@@]12C (stereo partly drawn)	101
CC(CC(=O)C[C@@H](C)[C@H]1C[C@H](O)[C@@]2(C)C3=C(C(=O)C[C@]12C)[C@@]1(C)CC[C@H](O)C(C)(C)[C@@H]1C[C@@H]3O)C(=O)O (stereo partly drawn)	101
CC(=O)O[C@@H]1C(=O)C2=C([C@@H](O)C[C@H]3C(C)(C)C(=O)CC[C@]23C)[C@]2(C)C(=O)C[C@H](/C(C)=C\C(=O)CC(C)C(=O)O)[C@@]12C (stereo partly drawn)	> 300
CC(CC(=O)C[C@@H](C)[C@H]1CC(=O)[C@@]2(C)C3=C(C(=O)[C@@H](O)[C@]12C)[C@@]1(C)CCC(=O)C(C)(C)[C@@H]1C[C@@H]3O)C(=O)O (stereo partly drawn)	> 300
CC(CC(=O)C[C@@H](C)[C@H]1CC(=O)[C@@]2(C)C3=C(C(=O)[C@@H](O)[C@]12C)[C@@]1(C)CCC(=O)C(C)(C)[C@@H]1CC3=O)C(=O)O (stereo partly drawn)	> 300
CC(=O)OC1C[C@H]([C@H](C)CC/C=C(/C)C(=O)O)[C@@]2(C)CC=C3C(=CC[C@H]4C(C)(C)C(=O)CC[C@]34C)[C@]12C (stereo partly drawn)	> 300
C/C(=C\C(=O)CC(C)C(=O)O)[C@H]1C[C@H](O)[C@@]2(C)C3=C(C(=O)C[C@]12C)[C@@]1(C)CCC(=O)C(C)(C)[C@@H]1C[C@@H]3O (stereo partly drawn) [GANODERENIC ACID A]	> 300
C/C(=C\C(=O)CC(C)C(=O)O)[C@H]1CC(=O)[C@@]2(C)C3=C(C(=O)C[C@]12C)[C@@]1(C)CC[C@H](O)C(C)(C)[C@@H]1C[C@@H]3O (stereo partly drawn) [GANODERENIC ACID B]	202
C/C(=C\C(=O)CC(C)C(=O)O)[C@H]1CC(=O)[C@@]2(C)C3=C(C(=O)C[C@]12C)[C@@]1(C)CCC(=O)C(C)(C)[C@@H]1CC3=O (stereo partly drawn) [GANODERENICACID F]	202
CC(CC(=O)C[C@@H](C)[C@H]1CC(=O)[C@@]2(C)C3=C(C(=O)C[C@]12C)[C@@]1(C)CC[C@H](O)C(C)(C)[C@@H]1CC3=O)C(=O)O (stereo partly drawn) [GANODERIC ACID AM1]	202
C[C@H](CC(=O)C[C@@H](C)[C@H]1C[C@H](O)[C@@]2(C)C3=C(C(=O)C[C@]12C)[C@@]1(C)CCC(=O)C(C)(C)[C@@H]1C[C@@H]3O)C(=O)O [GANODERIC ACID A]	> 300
COC(=O)[C@H](C)CC(=O)C[C@@H](C)[C@H]1CC(=O)[C@@]2(C)C3=C(C(=O)C[C@]12C)[C@@]1(C)CC[C@H](O)C(C)(C)[C@@H]1C[C@@H]3O [GANODERIC ACID B METHYL ESTER]	101

SMILES	IC50 [µM]
CC(CC(=O)C[C@@H](C)[C@H]1CC(=O)[C@@]2(C)C3=C(C(=O)C[C@]12C)[C@@]1(C)CC[C@H](O)C(C)(C)[C@@H]1C[C@@H]3O)C(=O)O (stereo partly drawn) [GANODERIC ACID B]	202
C[C@H](CC(=O)C[C@@H](C)[C@H]1CC(=O)[C@@]2(C)C3=C(C(=O)C[C@]12C)[C@@]1(C)CCC(=O)C(C)(C)[C@@H]1CC3=O)C(=O)O [GANODERIC ACID E]	101
CC(=O)O[C@@H]1C(=O)C2=C(C(=O)C[C@H]3C(C)(C)C(=O)CC[C@]23C)[C@]2(C)C(=O)C[C@H]([C@H](C)CC(=O)CC(C)C(=O)O)[C@@]12C (stereo partly drawn) [GANODERIC ACID F]	> 300
CC(CC(=O)C[C@@H](C)[C@H]1CC(=O)[C@@]2(C)C3=C(C(=O)[C@@H](O)[C@]12C)[C@@]1(C)CC[C@H](O)C(C)(C)[C@@H]1C[C@@H]3O)C(=O)O (stereo partly drawn) [GANODERIC ACID G]	101
CC(=O)O[C@@H]1C(=O)C2=C(C(=O)C[C@H]3C(C)(C)[C@@H](O)CC[C@]23C)[C@]2(C)C(=O)C[C@H]([C@H](C)CC(=O)CC(C)C(=O)O)[C@@]12C (stereo partly drawn) [GANODERIC ACID H]	> 300
CC(CC(=O)C[C@@H](C)[C@H]1C[C@H](O)[C@@]2(C)C3=C(C(=O)C[C@]12C)[C@@]1(C)CCC(=O)C(C)(C)[C@@H]1CC3=O)C(=O)O (stereo partly drawn) [GANODERIC ACID J]	> 300
CC(=O)O[C@@H]1C(=O)C2=C([C@@H](O)C[C@H]3C(C)(C)[C@@H](O)CC[C@]23C)[C@]2(C)C(=O)C[C@H]([C@H](C)CC(=O)CC(C)C(=O)O)[C@@]12C (stereo partly drawn) [GANODERIC ACID K]	> 300
C/C(=C\CC[C@@H](C)[C@H]1CC[C@@]2(C)C3=CC[C@H]4C(C)(C)[C@@H](O)CC[C@]4(C)C3=CC[C@]12C)C(=O)O [GANODERIC ACID Y]	11
C[C@H](CC[C@@H](O)C(C)(C)O)[C@H]1CC[C@@]2(C)C3=CC[C@H]4C(C)(C)C(=O)CC[C@]4(C)C3=CC[C@]12C [GANODERMANONDIOL]	11
C[C@H](CC[C@H](O)[C@](C)(O)CO)[C@H]1CC[C@@]2(C)C3=CC[C@H]4C(C)(C)C(=O)CC[C@]4(C)C3=CC[C@]12C [GANODERMANONTRIOL]	11
C/C(=C\CC[C@@H](C)[C@H]1CC[C@@]2(C)C3=CC[C@H]4C(C)(C)[C@@H](O)CC[C@]4(C)C3=CC[C@]12C)CO [GANODEROL B]	101
CC(CC(=O)C[C@@H](C)[C@H]1C[C@H](O)[C@@]2(C)C3=C(C(=O)C[C@]12C)[C@@]1(C)CCC(=O)C(C)(C)[C@@H]1CC3)C(=O)O (stereo partly drawn) [GANOLUCIDIC ACID A]	101
C/C(=C\CC[C@@H](C)[C@H]1C[C@H](O)[C@@]2(C)C3=C(C(=O)C[C@]12C)[C@@]1(C)CCC(=O)C(C)(C)[C@@H]1CC3)C(=O)O [GANOLUCIDIC ACID E]	11
C/C(=C\CC[C@@H](C)[C@H]1CC[C@@]2(C)C3=C(CC[C@]12C)[C@@]1(C)CC[C@H](O)C(C)(C)[C@@H]1CC3=O)CO [LUCIDADIOL]	5
C[C@H](CCC(=O)O)[C@H]1CC(=O)[C@@]2(C)C3=C(C(=O)C[C@]12C)[C@@]1(C)CCC(=O)C(C)(C)[C@@H]1C[C@@H]3O [LUCIDENIC ACID A]	> 300
CC(=O)[C@H]1CC(=O)[C@@]2(C)C3=C(C(=O)C[C@]12C)[C@@]1(C)CC[C@H](O)C(C)(C)[C@@H]1C[C@@H]3O [LUCIDONE A]	101
C[C@H](CC[C@H](O)C(C)(C)O)[C@H]1CC[C@@]2(C)C3=C(CC[C@]12C)[C@@]1(C)CCC(=O)C(C)(C)[C@@H]1CC3=O [LUCIDUMOL A]	11
COC(=O)C(C)CC(=O)C[C@@H](C)[C@H]1CC(=O)[C@@]2(C)C3=C(C(=O)[C@@H](OC(C)=O)[C@]12C)[C@@]1(C)CC[C@H](O)C(C)(C)[C@@H]1CC3=O (stereo partly drawn) [METHYL GANODERATE H]	11
COC(=O)CC[C@@H](C)[C@H]1CC(=O)[C@@]2(C)C3=C(C(=O)[C@@H](O)[C@]12C)[C@@]1(C)CC[C@H](O)C(C)(C)[C@@H]1C[C@@H]3O [METHYL LUCIDENATE C]	101

same assay, conditions: hela

SMILES	IC50 [µM]
CC(CC(=O)C[C@@H](C)[C@H]1CC(=O)[C@@]2(C)C3=C(C(=O)C[C@]12C)[C@@]1(C)CCC(=O)C(C)(C)[C@@H]1C[C@@H]3O)C(=O)O (stereo in doubt; 10) [GANODERIC ACID D]	31
CC(CC(=O)C[C@@H](C)[C@H]1CC(=O)[C@@]2(C)C3=C(C(=O)C[C@]12C)[C@@]1(C)CCC(=O)C(C)(C)[C@@H]1C[C@@H]3O)C(=O)O (stereo in doubt; 81) [GANODERIC ACID D]	> 300

species: Mus musculus; test: Inhibition of TPA-induced tumor progression in mouse skin at 0.2 umol measured at week 20; format: functional; details: not given

SMILES	inhibition (INH) [%]
C=C(CC[C@@H](C(=O)O)[C@H]1[C@H](O)C[C@@]2(C)C3=CC[C@H]4C(C)(C)[C@H](OC(C)=O)CC[C@]4(C)C3=CC[C@]12C)C(C)C	92

system: not listed separately; test: Cytotoxicity against mouse Meth-A cells; format: functional, cell-based; details: read-out: ED50 (the source's name)

SMILES	EC50 [µg/mL]
C/C(=C\[C@@H](O)C[C@@H](C)[C@H]1CC(=O)[C@@]2(C)C3=C(C(=O)[C@@H](O)[C@]12C)[C@@]1(C)CC[C@H](O)C(C)(C)[C@@H]1CC3=O)C(=O)O [GANODERIC ACID THETA]	2.3 (≈ 4.33 µM)
C[C@H](CC[C@@H](O)C(C)(C)O)[C@H]1CC[C@@]2(C)C3=CC[C@H]4C(C)(C)C(=O)CC[C@]4(C)C3=CC[C@]12C [GANODERMANONDIOL]	3.4 (≈ 7.44 µM)
C[C@H](CC[C@H](O)[C@](C)(O)CO)[C@H]1CC[C@@]2(C)C3=CC[C@H]4C(C)(C)C(=O)CC[C@]4(C)C3=CC[C@]12C [GANODERMANONTRIOL]	2.3 (≈ 4.87 µM)
C[C@H](CC[C@H](O)C(C)(C)O)[C@H]1CC[C@@]2(C)C3=C(CC[C@]12C)[C@@]1(C)CCC(=O)C(C)(C)[C@@H]1CC3=O [LUCIDUMOL A]	2.3 (≈ 4.87 µM)

system: not listed separately; test: Cytotoxicity against mouse LLC cells; format: functional, cell-based; details: Lewis lung carcinoma, read-out: ED50 (the source's name)

SMILES	EC50 [µg/mL]
C/C(=C\[C@@H](O)C[C@@H](C)[C@H]1CC(=O)[C@@]2(C)C3=C(C(=O)[C@@H](O)[C@]12C)[C@@]1(C)CC[C@H](O)C(C)(C)[C@@H]1CC3=O)C(=O)O [GANODERIC ACID THETA]	2.3 (≈ 4.33 µM)
C[C@H](CC[C@@H](O)C(C)(C)O)[C@H]1CC[C@@]2(C)C3=CC[C@H]4C(C)(C)C(=O)CC[C@]4(C)C3=CC[C@]12C [GANODERMANONDIOL]	2.3 (≈ 5.04 µM)
C[C@H](CC[C@H](O)[C@](C)(O)CO)[C@H]1CC[C@@]2(C)C3=CC[C@H]4C(C)(C)C(=O)CC[C@]4(C)C3=CC[C@]12C [GANODERMANONTRIOL]	2.3 (≈ 4.87 µM)
C[C@H](CC[C@H](O)C(C)(C)O)[C@H]1CC[C@@]2(C)C3=C(CC[C@]12C)[C@@]1(C)CCC(=O)C(C)(C)[C@@H]1CC3=O [LUCIDUMOL A]	2.3 (≈ 4.87 µM)

system: L1210; test: Cytotoxicity against mouse L1210 cells; format: functional, cell-based; details: not given

SMILES	IC50 [µM]
CC(C)=CCC[C@@H](C=O)[C@H]1CC[C@@]2(C)C3=C(CC[C@]12C)[C@@]1(C)CC[C@H](O)C(C)(C)[C@@H]1CC3	34.4
CC(C)=CCC[C@@H](C(=O)O)[C@H]1CC[C@@]2(C)C3=C(CC[C@]12C)[C@@]1(C)CC[C@H](O)C(C)(C)[C@@H]1CC3 [TRAMETENOLIC ACID]	62.5

Reference: ChEMBL document CHEMBL2203027, “Lanostanoids from fungi: a group of potential anticancer compounds” (J Nat Prod, 2012)
